Drawing on PubChem BioAssay (NCI), this text covers TGI and GI50 for 14 molecules.

By TGI is commonly meant the concentration at which net growth stops. As usually defined, the GI50 is the concentration giving 50% growth inhibition.

Among the test systems are CCRF-CEM leukemia; COLO 205 colon; HCT-15 colon; HL-60(TB) leukemia; MOLT-4 leukemia; NCI-H23 lung; TK-10 renal; UACC-62 melanoma; UO-31 renal; NCI-H226 lung.
Holding throughout (test): DTP human tumour cell line panel, 48 h

Structures are written as SMILES. ≈ marks a conversion by molar mass, not a printed value. Where “and” joins values, the source holds several entries; their conditions need not be identical. Equal values may be shown once.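 Grown in 96-well plates, cells were treated for 48 hours with each compound at five concentrations. Insufficient inhibition: endpoint recorded as highest concentration tested. GI50 marks 50% less growth. TGI marks complete inhibition of growth.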

With `Cc1ccc(C)c(NC(=O)C(Cc2c[nH]c3ccccc23)NC(=O)OCc2ccccc2)c1` (centres undefined), the concentration for total growth inhibition (TGI) in the assay with CCRF-CEM leukemia is 12.2 µM; with COLO 205 colon, 46.1 µM; in the assay with HCT-15 colon, above 100 µM; in the assay on HL-60(TB) leukemia it was 15.4 µM; in the assay on MOLT-4 leukemia, 19.6 µM; with NCI-H23 lung, 68.4 µM. The TGI in the assay with TK-10 renal was 39.2 µM; with UACC-62 melanoma, 59.7 µM; in the assay with UO-31 renal, 34.9 µM.
For `CCN(CC)c1nc(N(C)C)c2cc(OC)ccc2n1`, the TGI was 28.2 µM with COLO 205 colon; above 100 µM in the assay with HCT-15 colon; 67 µM in the assay on HL-60(TB) leukemia; 65.1 µM in the assay with MOLT-4 leukemia; 60.1 µM in the assay with NCI-H226 lung; above 100 µM with NCI-H23 lung. For the same molecule, the TGI in the assay with TK-10 renal, in the assay on UACC-62 melanoma and in the assay on UO-31 renal was above 100 µM in each case.
As for `O=C1NN(c2ccccc2)C(=O)C2C3c4ccccc4C(c4ccccc43)C12` (centres undefined), the TGI in the assay on CCRF-CEM leukemia, with COLO 205 colon, in the assay on HCT-15 colon, in the assay with NCI-H226 lung, in the assay with NCI-H23 lung and with TK-10 renal was above 100 µM in each case. The TGI in the assay with UACC-62 melanoma and in the assay on UO-31 renal was above 100 µM in each case.
Take `CC(C)(C)NC1C2CCC(C)(C1O)C2(C)C` (centres undefined): the total growth inhibition concentration (TGI) with COLO 205 colon was above 100 µM; in the assay on HCT-15 colon it was above 100 µM; in the assay on MOLT-4 leukemia it was above 100 µM; in the assay on NCI-H23 lung, above 100 µM; in the assay on TK-10 renal, above 100 µM; in the assay on UACC-62 melanoma, 12.5 µM. Further, in the assay with UO-31 renal, the concentration for total growth inhibition (TGI) is above 100 µM.
For `O=C(Nc1c(Cl)cc([N+](=O)[O-])cc1Cl)/C(=N\Nc1cccc(Cl)c1)c1c(O)c2ccccc2oc1=O`, the total growth inhibition concentration (TGI) in the assay on CCRF-CEM leukemia, in the assay with COLO 205 colon, in the assay on HL-60(TB) leukemia, in the assay on MOLT-4 leukemia, with NCI-H23 lung and in the assay on TK-10 renal was above 100 µM each time. Moreover, the values for the concentration for total growth inhibition (TGI) with UACC-62 melanoma and with UO-31 renal were above 100 µM and 78.1 µM, respectively.
For `COc1cccc(-n2c(N)c(-c3nc4cc(C(F)(F)F)ccc4s3)c3ccc([N+](=O)[O-])cc3c2=O)c1`, the TGI in the assay on COLO 205 colon, in the assay on HCT-15 colon, in the assay on MOLT-4 leukemia, in the assay with NCI-H226 lung, in the assay with NCI-H23 lung and in the assay with TK-10 renal was above 100 µM in each case. For the same molecule, the total growth inhibition concentration (TGI) in the assay on UACC-62 melanoma and with UO-31 renal was above 100 µM throughout.
As for `COc1cc([C@@H]2c3cc4c(c(O)c3C[C@H]3COC(=O)[C@@H]32)OCO4)cc(OC)c1O`, the GI50 in the assay with CCRF-CEM leukemia was 3.37 nM and 20 nM; with HCT-15 colon it was 3.48 nM and 26.5 nM; in the assay with HL-60(TB) leukemia it was 2.41 nM; with MOLT-4 leukemia, 3.84 nM and 27.4 nM; in the assay with NCI-H226 lung, 5.62 nM; in the assay with UACC-62 melanoma, 4.54 nM. Besides, the concentration for total growth inhibition (TGI) with CCRF-CEM leukemia is above 35.6 µM; in the assay on COLO 205 colon it was 0.174 µM; in the assay on HCT-15 colon, above 9.28 µM; in the assay with HL-60(TB) leukemia it was 0.0066 µM; in the assay on MOLT-4 leukemia it was 0.0374 µM; with NCI-H23 lung, 0.637 µM. For the same molecule, the concentration for total growth inhibition (TGI) in the assay with UACC-62 melanoma was above 200 µM; in the assay on UO-31 renal, above 77.7 µM.
Take `CN1OC2OC(=O)OC2[C@H]1[C@H]1O[C@H](c2ccccc2)OC1(C)c1cc(OC(=O)c2ccccc2)ccc1OC(=O)c1ccccc1` (some centres undefined): the concentration for total growth inhibition (TGI) with CCRF-CEM leukemia, with COLO 205 colon, with HCT-15 colon, in the assay on HL-60(TB) leukemia, in the assay with MOLT-4 leukemia and in the assay with NCI-H226 lung was above 50 µM throughout. Further, the TGI with NCI-H23 lung, with TK-10 renal and with UO-31 renal was above 50 µM throughout.
On to `CC(=O)NC(CCCCNC(=O)N(C)N=O)C(=O)NCc1ccccc1` (centres undefined), for which the total growth inhibition concentration (TGI) in the assay on CCRF-CEM leukemia, in the assay with COLO 205 colon, with HCT-15 colon, with MOLT-4 leukemia, in the assay with NCI-H226 lung and in the assay with NCI-H23 lung was above 100 µM in each case. Further, the concentration for total growth inhibition (TGI) in the assay on TK-10 renal, in the assay on UACC-62 melanoma and in the assay on UO-31 renal was above 100 µM throughout.
For `Cc1cc(-c2nc3cc(F)c(F)cc3s2)ccc1N`, the TGI in the assay with CCRF-CEM leukemia, in the assay with COLO 205 colon, in the assay with HCT-15 colon, in the assay on HL-60(TB) leukemia, in the assay with MOLT-4 leukemia and in the assay with NCI-H23 lung was above 100 µM throughout. The TGI in the assay on UACC-62 melanoma and in the assay on UO-31 renal was above 100 µM throughout.
Turning to `COc1c(O)cc(C(=O)O[C@@H]2Cc3c(O)cc(O)cc3O[C@@H]2c2cc(O)c(O)c(O)c2)cc1O`, the total growth inhibition concentration (TGI) in the assay on HCT-15 colon is 86.2 µM; in the assay with HL-60(TB) leukemia, 63 µM; in the assay with MOLT-4 leukemia, 56.8 µM; with NCI-H23 lung it was 98.5 µM; in the assay on TK-10 renal, above 100 µM; with UACC-62 melanoma it was 78.4 µM. The molecule also showed a TGI with UO-31 renal of 50.5 µM.
For `S=C(Nc1ccccc1)N1N=C2c3ccccc3CC[C@H]2[C@@H]1c1ccccc1`, the TGI in the assay with HCT-15 colon is above 100 µM; in the assay on HL-60(TB) leukemia, 4.83 µM; with MOLT-4 leukemia, above 100 µM; in the assay on NCI-H226 lung it was above 100 µM; in the assay with NCI-H23 lung, above 100 µM; in the assay with TK-10 renal, above 100 µM. Moreover, the TGI in the assay with UACC-62 melanoma and in the assay on UO-31 renal was above 100 µM each time.
As to `NC(N)=Nc1nc2ccccc2[nH]1`, the GI50 is 4.49 µg/mL with CCRF-CEM leukemia; 61.7 µg/mL (≈ 352 µM) with COLO 205 colon; 80.9 µg/mL with HCT-15 colon; 3.87 µg/mL in the assay with HL-60(TB) leukemia; 5.03 µg/mL with MOLT-4 leukemia; 55.3 µg/mL with NCI-H226 lung. Besides, the GI50 with NCI-H23 lung is 121 µg/mL (≈ 691 µM); with UACC-62 melanoma it was 36.2 µg/mL; in the assay on UO-31 renal, 20 µg/mL (≈ 114 µM). Moreover, the TGI in the assay with CCRF-CEM leukemia is 111 µg/mL; in the assay on COLO 205 colon, above 150 µg/mL; in the assay with HCT-15 colon it was above 150 µg/mL; in the assay on HL-60(TB) leukemia, 17.2 µg/mL; in the assay on MOLT-4 leukemia it was 37.3 µg/mL; with NCI-H226 lung, above 150 µg/mL. Further, the concentration for total growth inhibition (TGI) was above 150 µg/mL in the assay with NCI-H23 lung, above 150 µg/mL in the assay on UACC-62 melanoma and 107 µg/mL with UO-31 renal.
As to `N#CC(c1cc(Cl)ncn1)c1nc2ccccc2s1` (centres undefined), the TGI with COLO 205 colon is 57.6 µM; in the assay on HCT-15 colon, 15.6 µM; in the assay with MOLT-4 leukemia it was above 100 µM; in the assay with NCI-H226 lung, above 100 µM; in the assay with NCI-H23 lung, 19.5 µM; in the assay with TK-10 renal, above 100 µM. The TGI in the assay with UO-31 renal was above 100 µM.
